What was measured:
[1] = Stability of prodrugs in mouse plasma after 2 hours of treatment; assay type: in vitro ADME; details: 37° C.
hA3AR = hA3AR (Homo sapiens (Human), UniProt P0DMS8); assay: Binding affinities for Adenosine receptors (hA3AR); details: CHO cells stably expressing recombinant hA3AR
hA2AAR = hA2AAR (Homo sapiens (Human), UniProt P29274); assay: Binding affinities for Adenosine receptors (hA2AAR); details: HEK 293 cells stably expressing hA2AAR
hA1AR = hA1AR (Homo sapiens (Human), UniProt P30542); assay: Binding affinities for Adenosine receptors (hA1AR); details: CHO cells stably expressing recombinant hA1AR
hA1AR, sequence (P30542 whole entry): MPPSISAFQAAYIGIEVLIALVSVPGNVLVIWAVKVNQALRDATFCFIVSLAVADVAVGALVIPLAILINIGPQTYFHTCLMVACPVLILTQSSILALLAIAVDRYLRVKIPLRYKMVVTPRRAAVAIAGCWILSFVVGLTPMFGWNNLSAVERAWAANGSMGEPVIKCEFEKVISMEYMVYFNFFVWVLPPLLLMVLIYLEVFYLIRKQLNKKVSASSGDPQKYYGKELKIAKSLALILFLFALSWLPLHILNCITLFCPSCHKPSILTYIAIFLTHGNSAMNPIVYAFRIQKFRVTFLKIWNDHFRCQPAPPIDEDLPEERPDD

hA2AAR, sequence (P29274 whole entry): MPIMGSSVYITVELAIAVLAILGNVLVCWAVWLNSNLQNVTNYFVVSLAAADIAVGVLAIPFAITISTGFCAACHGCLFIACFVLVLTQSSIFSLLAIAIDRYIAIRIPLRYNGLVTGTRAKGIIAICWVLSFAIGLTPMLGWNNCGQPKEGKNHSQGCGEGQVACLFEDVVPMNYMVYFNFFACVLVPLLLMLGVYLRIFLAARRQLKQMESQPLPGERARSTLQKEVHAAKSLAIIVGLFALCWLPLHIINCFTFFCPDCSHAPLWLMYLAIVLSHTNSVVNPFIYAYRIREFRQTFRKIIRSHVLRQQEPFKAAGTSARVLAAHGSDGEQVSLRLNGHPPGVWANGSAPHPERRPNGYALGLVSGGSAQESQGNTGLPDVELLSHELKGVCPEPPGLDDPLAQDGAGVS
hA3AR, sequence (P0DMS8 whole entry): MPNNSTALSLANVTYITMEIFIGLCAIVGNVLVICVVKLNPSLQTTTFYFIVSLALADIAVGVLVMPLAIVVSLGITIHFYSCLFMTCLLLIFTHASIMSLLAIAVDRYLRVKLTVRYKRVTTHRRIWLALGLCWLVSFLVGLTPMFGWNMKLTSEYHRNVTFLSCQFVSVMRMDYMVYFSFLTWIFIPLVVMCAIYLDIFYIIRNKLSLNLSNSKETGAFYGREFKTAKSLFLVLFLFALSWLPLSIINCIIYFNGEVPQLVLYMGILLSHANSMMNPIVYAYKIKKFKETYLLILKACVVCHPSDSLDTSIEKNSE

Row | SMILES | Parent prodrug remained after 2 hours [1] | Ki (hA3AR) | Ki (hA2AAR) | Ki (hA1AR)
1 | CC(C)[C@H](N)C(=O)OC1C(OC(=O)[C@@H](N)C(C)C)[C@@H]2C[C@@H]2C1n1cnc2c(NC(C3CC3)C3CC3)nc(Cl)nc21.Cl.Cl (stereo partly drawn) [Compound T1.1, (1R,5S)-4-(2-chloro-6-((dicyclopropylmethyl)amino)-9H-purin-9-yl)bicyclo[3.1.0]hexane-2,3-diyl (2S,2'S)-bis(2-amino-3-methylbutanoate), dihydrochloride salt] | 11% | – | – | –
2 | CC(C)[C@H](N)C(=O)N(c1nc(Cl)nc2c1ncn2[C@H]1[C@H](O)[C@H](O)[C@@H]2C[C@@H]21)C(C1CC1)C1CC1 [Compound T3.1, (S)-2-amino-N-(2-chloro-9-((1S,2R,3S,4R,5R)-3,4-dihydroxybicyclo[3.1.0]hexan-2-yl)-9H-purin-6-yl)-N-(dicyclopropylmethyl)-3-methylbutanamide] | 14% | – | – | –
3 | CC(C)[C@H](N)C(=O)OC[C@@]12C[C@@H]1[C@@H](n1cnc3c(NC(C4CC4)C4CC4)nc(Cl)nc31)[C@H](O)[C@@H]2O [Compound T4.1, ((1R,2R,3S,4R,5S)-4-(2-chloro-6-((dicyclopropylmethyl)amino)-9H-purin-9-yl)-2,3-dihydroxybicyclo[3.1.0]hexan-1-yl)methyl L-valinate] | 21% | – | – | –
4 | CNC(=O)[C@@]12C[C@@H]1[C@@H](n1cnc3c(NCc4cccc(Cl)c4)nc(C#Cc4ccc(F)c(F)c4)nc31)[C@H](OC(=O)[C@@H](N)C(C)C)[C@@H]2OC(=O)[C@@H](N)C(C)C [Compound T8.1, (1S,2R,3S,4R,5S)-4-(6-((3-chlorobenzyl)amino)-2-((3,4-difluorophenyl)ethynyl)-9H-purin-9-yl)-1-(methylcarbamoyl)bicyclo[3.1.0]hexane-2,3-diyl (2S,2'S)-bis(2-amino-3-methylbutanoate)] | 9% | – | – | –
5 | CNC(=O)[C@@]12C[C@@H]1[C@@H](n1cnc3c(NCc4cccc(Cl)c4)nc(C#Cc4ccc(F)c(F)c4)nc31)[C@@H]1OC3(CCN(C)CC3)O[C@@H]12 [Compound T9.8, (3aR,3bS,4aS,5R,5aS)-5-(6-((3-chlorobenzyl)amino)-2-((3,4-difluorophenyl)ethynyl)-9H-purin-9-yl)-N,1′-dimethyltetrahydrospiro[cyclopropa[3,4]cyclopenta[1,2-d][1,3]dioxole-2,4′-piperidine]-3b(3aH)-carboxamide] | 17% | – | – | –
6 | C[C@@H]1CC(n2cnc3c(NC(C4CC4)C4CC4)nc(Cl)nc32)C(O)C1O (some centres unmarked) [Compound T13.1] | – | 1 to 10 µM | > 10 µM | < 1 µM
7 | C[C@@H]1CC(n2cnc3c(NC4C5(CC5)C45CC5)nc(Cl)nc32)C(O)C1O (some centres unmarked) [Compound T13.2] | – | > 10 µM | 1 to 10 µM | < 1 µM
8 | C[C@@H]1CC(n2cnc3c(NC(C4CCC4)C4CCC4)nc(Cl)nc32)C(O)C1O (some centres unmarked) [Compound T13.3] | – | > 10 µM | > 10 µM | < 1 µM
9 | C[C@@H]1CC(n2cnc3c(NC(C4CC4)C4CC4)ncnc32)C(O)C1O (some centres unmarked) [Compound T13.4] | – | > 10 µM | 1 to 10 µM | 1 to 10 µM
10 | C[C@@H]1CC(n2cnc3c(NC4C5(CC5)C45CC5)ncnc32)C(O)C1O (some centres unmarked) [Compound T13.5] | – | > 10 µM | > 10 µM | > 10 µM
11 | C[C@@H]1CC(n2cnc3c(NC(C4CCC4)C4CCC4)ncnc32)C(O)C1O (some centres unmarked) [Compound T13.6] | – | > 10 µM | 1 to 10 µM | 1 to 10 µM
12 | OC[C@H]1O[C@@H](n2cnc3c(NC(C4CC4)C4CC4)nc(Cl)nc32)[C@@H](O)C1O (some centres unmarked) [Compound T14.1] | – | > 10 µM | 1 to 10 µM | 1 to 10 µM
13 | OC[C@H]1O[C@@H](n2cnc3c(NC4C5(CC5)C45CC5)nc(Cl)nc32)[C@@H](O)C1O (some centres unmarked) [Compound T14.2] | – | > 10 µM | 1 to 10 µM | > 10 µM
14 | OC[C@H]1O[C@@H](n2cnc3c(NC(C4CCC4)C4CCC4)nc(Cl)nc32)[C@@H](O)C1O (some centres unmarked) [Compound T14.3] | – | < 1 µM | 1 to 10 µM | > 10 µM
15 | OC[C@H]1O[C@@H](n2cnc3c(NC(C4CC4)C4CC4)ncnc32)[C@@H](O)C1O (some centres unmarked) [Compound T14.4] | – | 1 to 10 µM | 1 to 10 µM | > 10 µM
16 | OC[C@H]1O[C@@H](n2cnc3c(NC4C5(CC5)C45CC5)ncnc32)[C@@H](O)C1O (some centres unmarked) [Compound T14.5] | – | > 10 µM | > 10 µM | 1 to 10 µM
17 | OC[C@H]1O[C@@H](n2cnc3c(NC(C4CCC4)C4CCC4)ncnc32)[C@@H](O)C1O (some centres unmarked) [Compound T14.6] | – | 1 to 10 µM | 1 to 10 µM | 1 to 10 µM
